Assay results published in patent US20040213742A1, “Monitoring marker” (priority 2002, published 2004).

Experiment: Intrauterine injection of pure N2O gas in anaesthetized pigs, N2O detected in expired breath
Type: in vivo
Conditions: anaesthetized pig
Method: Pure nitrous oxide (N2O) gas was injected into the uterine cavities of 2 anaesthetized pigs with open uterine tubes and surgically ligated uterine tubes, respectively. Said N2O was detected every second in the expired breath by means of a conventional N2O detector.
The results are shown in FIGS. 1 and 2, where FIG. 1 is a concentration versus time graph and FIG. 2 is a cumulative concentration versus time graph, the upper curves representing closed uterine tubes and the lower curves representing open uterine tubes.
Furthermore, there was a clear difference between the two curves versus time which enables a monitoring of fallopian tube abnormalities as claimed by the present invention.

In the case of `[N-]=[N+]=O` [nitrous oxide], the “time to maximum concentration in the exhaled air” value (open uterine tubes, intrauterine injection of pure N2O gas) is reported as “approximately 2 minutes”, the “maximum concentration in the exhaled air” value (open uterine tubes, pure N2O gas injected into uterine cavity, detected every second in expired breath) is reported as “approximately 40 ppm” and the “maximum concentration in the exhaled air, closed tubes relative to open tubes (higher)” value (surgically ligated (closed) uterine tubes versus open uterine tubes) is reported as “approximately 50%”.
